pEC50: −log10 of the molar value.
How the values were obtained:
EpiSC-derived OPCs = assay: In vitro phenotypic screening of OPCs (MBP staining, high-content imaging); type: cell-based, mouse; conditions: Mus musculus, 72 h, percentage of MBP+ oligodendrocytes, 3 days, 0.5 nM to 1000 nM; read-out: OPC EC50
Description: To assess effects of treatments on OPCs, all treatments were assayed in two or more independent platings of epiblast stem cell-derived OPCs (EpiSC). EpiSC-derived OPCs were obtained using in vitro differentiation protocols and culture conditions described previously (Najm et al, 2011, Nature Methods). OPCs were expanded and frozen down in aliquots. OPCs were thawed into growth conditions for at least one passage before use in further assays.
EpiSC-derived OPCs were grown and expanded in poly-L-ornithine (PO) and laminin-coated flasks in N2B27 media (DMEM/F12 (Gibco), N2-MAX (R&D Systems), B-27 (ThermoFisher), and GlutaMax (Gibco)) supplemented with FGF2 ([…], R&D systems, 233-FB-025) and PDGF-AA ([…], R&D systems, 233-AA-050) before harvesting for experiments. The cells were seeded onto poly-L-ornithine or poly-D-lysine coated CellCarrier Ultra plates (PerkinElmer) coated with laminin (Sigma, L2020) at a density of 150,000/cm^2 in N2B27 media without growth factors. For dose-response testing, a 1000× compound stock in dimethyl sulphoxide (DMSO) was added to assay plates, resulting in 8-point dose curves with final concentrations between 1000 nM and 0.5 nM. Positive controls and DMSO vehicle controls were included in each assay plate. Cells were incubated under standard conditions (37° C., 5% CO2) for 3 days and fixed with 4% paraformaldehyde (PFA) in phosphate buffered saline (PBS) for 20 min. Fixed plates were washed with PBS, permeabilized with 0.1% Triton X-100, and blocked with 10% donkey serum (v/v) in PBS for 40 min. Then, cells were labelled with MBP antibodies (Abcam, ab7349; 1:200) for 2 h at room temperature, washed with PBS, and stained with Alexa Fluor conjugated secondary antibodies (1:500) for 45 min. Nuclei were visualized by DAPI staining (Sigma; 1 μg/ml), followed by further PBS washes.
Cells and cell culture plates were imaged on the Operetta High Content Imaging and Analysis system (PerkinElmer). Analysis (PerkinElmer Harmony and Columbus software) began by identifying intact nuclei stained by DAPI. The peri-nuclear region of each cell was then cross-referenced with the mature myelin protein (MBP) stain to identify oligodendrocyte nuclei, and from this the percentage of oligodendrocytes was calculated. EC50 values were calculated using The Levenberg-Marquardt algorithm to fit a Hill equation to dose-response data (0.5 nM to 1000 nM).

[1] = tested on: EBP (zymostenol accumulation in EpiSC-derived OPCs); assay: GC/MS-based sterol profiling, zymostenol accumulation in OPCs; type: cell-based, mouse; conditions: Mus musculus, 24 h, EpiSC-derived OPCs, 24 hr treatment, 8 doses from 0.15 nM to 333 nM; read-out: Zymostenol GCMS EC50
Description: To assess effects of treatments on OPCs, all treatments were assayed in two or more independent platings of epiblast stem cell-derived OPCs ([…]-derived OPCs were obtained using in vitro differentiation protocols and culture conditions described previously (Najm et al, 2011, Nature Methods). OPCs were expanded and frozen down in aliquots. OPCs were thawed into growth conditions for at least one passage before use in further assays. Sterols were monitored using a modified Folch wash protocol (Hubler et al, 2018, Nature). EpiSC-derived OPCs were plated at 100,000 cells per well in PO- and laminin-coated 96-well plates in N2B27 media without growth factors. After 24 hours, cells were rinsed with saline and plates were frozen. Cholesterol-d7 standard was then added to each well before drying under nitrogen stream and derivatization with 55 μl of bis(trimethylsilyl) trifluoroacetamide. After derivatization, 2 μl were analyzed by gas chromatography/mass spectrometry using an Agilent 5973 Network Mass Selective Detector equipped with a 6890 gas chromatograph system and a HP-5MS capillary column (30 m×0.25 mm×0.25 mm). Samples were analyzed in full scan mode using electron impact ionization; ion fragment peaks were integrated to calculate sterol abundance, and quantitation was relative to cholesterol-d7. […] All standards were obtained from Avanti Polar Lipids unless otherwise indicated. Calibration curves were generated by injecting varying concentrations of sterol standards and maintaining a fixed amount of cholesterol-D7. For normalized zymostenol accumulation results, the total amount of zymostenol measured after drug treatment was divided by the total amount of zymostenol accumulated after 24 hr treatment with 100 nM positive control reference.

Row | SMILES | pEC50 (EpiSC-derived OPCs) | pEC50 [1]
1 | O=S1(=O)CC2(CCN([C@H]3CC[C@@H](c4ccc(C(F)(F)F)cn4)CC3)C2)C1 [Compound 96, 6-((1s,4s)-4-(5-(Trifluoromethyl)pyridin-2-yl)cyclohexyl)-2-thia-6-azaspiro[3.4]octane 2,2-dioxide] | 6.96 | 7.15
2 | O=S1(=O)CC[C@@]2(CCCN([C@H]3CC[C@@H](c4ccc(C(F)(F)F)nc4)CC3)C2)C1 (single isomer, unassigned) [71A*] | 7.72 | 8.22
3 | O=S1(=O)CC2(CCN([C@H]3CC[C@@H](c4ccnc(C(F)(F)F)c4)CC3)CC2)C1 [Compound 90A, 7-((1s,4s)-4-(2-(Trifluoromethyl)pyridin-4-yl)cyclohexyl)-2-thia-7-azaspiro[3.5]nonane 2,2-dioxide] | 6.62 | 7.51
4 | CC(C)n1nc(C(F)(F)F)cc1[C@H]1CC[C@@H](N2CCC[C@@]3(CCS(=O)(=O)C3)C2)CC1 (single isomer, unassigned) [91A*] | 8.03 | 8.47

The remaining lines, values ahead:

Row | pEC50 (EpiSC-derived OPCs) | pEC50 [1] | SMILES
5 | 7.54 | 7.59 | O=S1(=O)CC2(CCN([C@H]3CC[C@H](c4ccc(C(F)(F)F)cn4)CC3)CC2)C1 [Compound 50A, 7-((1r,4r)-4-(5-(Trifluoromethyl)pyridin-2-yl)cyclohexyl)-2-thia-7-azaspiro[3.5]nonane 2,2-dioxide]
6 | 7.82 | 8.00 | O=S1(=O)CC2(CCN([C@H]3CC[C@H](c4ccc(C(F)(F)F)cn4)CC3)C2)C1 [Compound 49, 6-((1r,4r)-4-(5-(Trifluoromethyl)pyridin-2-yl)cyclohexyl)-2-thia-6-azaspiro[3.4]octane 2,2-dioxide]
7 | 7.35 | 7.49 | O=S1(=O)CC2(CCN([C@H]3CC[C@@H](c4ccc(C(F)(F)F)cn4)CC3)CC2)C1 [Compound 50B, 7-((1s,4s)-4-(5-(trifluoromethyl)pyridin-2-yl)cyclohexyl)-2-thia-7-azaspiro[3.5]nonane 2,2-dioxide]
